Test results reported in BindingDB's records for doi:10.1021/jm000048n (Washington State University, 2000).

What was measured:
[1] = biological target: Cytochrome P450 2C9 (Homo sapiens, UniProt P11712); test: (§1) Binding affinity was measured on Cytochrome P450 2C9
[2] = biological target: {'v': 'CYP2C9', 'o': 'p', 'q': 'Cytochrome P450 2C9 (single_protein)'} (Homo sapiens, UniProt P11712); test: as §1
Chain of {'v': 'CYP2C9', 'o': 'p', 'q': 'Cytochrome P450 2C9 (single_protein)'} (P11712 whole entry): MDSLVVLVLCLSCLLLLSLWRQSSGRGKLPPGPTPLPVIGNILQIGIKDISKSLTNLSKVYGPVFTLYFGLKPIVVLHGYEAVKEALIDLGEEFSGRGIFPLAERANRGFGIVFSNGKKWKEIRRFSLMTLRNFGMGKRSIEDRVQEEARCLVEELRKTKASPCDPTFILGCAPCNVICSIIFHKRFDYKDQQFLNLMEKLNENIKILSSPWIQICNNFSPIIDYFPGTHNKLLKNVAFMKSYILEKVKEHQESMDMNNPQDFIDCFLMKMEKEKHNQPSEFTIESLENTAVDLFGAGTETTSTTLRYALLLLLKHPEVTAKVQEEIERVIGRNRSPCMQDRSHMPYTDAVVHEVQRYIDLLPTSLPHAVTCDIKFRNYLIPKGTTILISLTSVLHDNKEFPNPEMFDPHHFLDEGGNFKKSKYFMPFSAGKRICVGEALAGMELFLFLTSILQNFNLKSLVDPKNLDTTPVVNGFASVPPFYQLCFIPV

Chain of Cytochrome P450 2C9 (P11712 whole entry): as above

Ki [1]: 500 nM
Ki [2]: 500 nM
Structure (SMILES): CC[C@H](c1ccccc1)c1c(O)c2ccccc2oc1=O
